Results on seven compounds are retold here after article PMC12636026 (Journal of the American Chemical Society, 2025).

Entries after “also recorded” stand apart in the source; their conditions may differ.

For series [1] the following is noted: Zn(II)/phosphate challenge, relaxivity, 2.5 mM complex and 2.5 mM Zn(II); ref Laurent et al.; cited from earlier work. From the text:
The stability of MRI contrast agents is often benchmarked by the “ratio index”, defined as the time for the relaxation value to drop to 80% of its initial value under Zn(II)/phosphate challenge. […] Laurent et al. monitored complex integrity using relaxivity under equimolar condi ...

A further series deals with trypsin. Put plainly: 12 µM trypsin (bovine pancreas) in 100 mM HEPES buffer pH 7.5. To be noted: 37°C, up to 48 h.
The conditions of series [2]: clinical agent; ref citation number not given; cited from earlier work. From the text:
These findings advance our understanding of ligand suitability in MRI contrast agent design and illustrate the potential of metallo-coiled coils to surpass the performance limits of traditional inorganic complexes. By exploiting the modular natur ...

In the case of `CNC[C@H](O)[C@@H](O)[C@H](O)[C@H](O)CO.O=C([O-])CN1CCN(CC(=O)[O-])CCN(CC(=O)O)CCN(CC(=O)[O-])CC1.[Gd+3]` [Dotarem], the “ratio index (time for relaxation value to drop to 80% of initial value)” value in series [1] is “exceeds 5000 min”.

Regarding “Ac-G IAAIEQK IAANEWK DAAIEQK IAAIEQK IAAIEQK G-NH2 [MB1-2]”, the cleaved bond entry with trypsin is “Lys-I, within 30 min; also recorded: Lys15-D, within 30 min; also recorded: Lys-G, within 30 min”.

Turning to `O=C([O-])CN1CCN(CC(=O)[O-])CCN(CC(=O)[O-])CCN(CC(=O)[O-])CC1.[Gd+3]` [Gd-DOTA], in series [2], the “r 1 relaxivity at 1.5 T” value is reported as 4.3 mM^–1 s^–1 and the “r 2 relaxivity at 1.5 T” value is listed as 5.7 mM^–1 s^–1.

In the case of “Ac-G IAAIEQK IAANEWK DAAIXQK IAAIEQK IAAIEQK G-NH2 [KH2-20X]”, in the series with trypsin, the cleaved bond result is “Lys-G, major, 30 min; also recorded: Lys-I, 30 min”; the fragment found entry is “trimeric cross-linked IAANEWK DAAIEQK (peak 5), 30 min”; the not cleaved entry was “uncleaved IAANEWK DAAIEQK stretch; individual IAANEWK and DAAIEQK fragments absent”.

Take “Ac-G IAAIEQK IAANEWK DAAIEQK IAAIEQK IAAIEQK G-NH2 [Tb(MB1-2)3]”: the cleaved bond result in the series with trypsin is given as “Lys-G, major”.

Take `CNC[C@H](O)[C@@H](O)[C@H](O)[C@H](O)CO.CNC[C@H](O)[C@@H](O)[C@H](O)[C@H](O)CO.O=C([O-])CN(CCN(CC(=O)[O-])CC(=O)O)CCN(CC(=O)[O-])CC(=O)O.[Gd+3]` [Magnevist]: the “ratio index (time for relaxation value to drop to 80% of initial value)” value in series [1] is recorded as around 250 min.

Take “Ac-G IAAIEQK IAANEWK DAAIXQK IAAIEQK IAAIEQK G-NH2 [Tb(KH2-20X)]”: the cleaved bond entry in the series with trypsin is on record as “Lys-G, major; also recorded: Lys-I”.
